Experimental data as given in paper PMC7732531 (Frontiers in Pharmacology, 2020).

Key:
[1] = Blood/plasma partitional ratio, human blood; type: in vitro ADME; details: fresh pooled whole blood with heparin, human whole blood, 37°C, read-out: blood/plasma partitioning (R b/P)
Method: The blood/plasma partitional ratio (R b/p) in rat and human blood was measured in vitro using fresh pooled blood including heparin. Whole blood was preincubated at 37°C in a water bath, and spiked with YL-IPA08 at 1 µM. The blood samples were incubated at 37°C for 1 h. After incubation, aliquots of 25 µl spiked whole blood were removed, and the remaining blood was centrifuged at 2,000 × g for 10 min, after which 25 µl aliquots of plasma were removed. Obtained blood and plasma samples were spiked with same volume of blank plasma or blood, respectively, and then immediately precipitated by adding 4× volumes of acetonitrile containing IS to get the same matrix. The concentrations of YL-IPA08 in blood and plasma were determined by LC-MS/MS.

TSPO = assay: In vitro TSPO binding, crude mitochondrial fraction from rat cerebellum; details: corrected by binding fraction of 10-volume brain homogenate
From the text: Unbound fractions of YL-IPA08 in rat plasma and brain homogenate were 0.6 and 0.49%, respectively. K p value of brain to plasma in rats was obtained under steady state to reach brain equilibrium in a transient dosing regimen. Then, K p,uu achieved 0.18. The unbound concentration of YL-IPA08 in brain can be estimated based on the plasma concentrations after rats receiving different dosages of YL-IPA08 via oral dosing (Table 4). For example, the unbound concentration of 6.5 pg/g in brain can be achieved after 1 mg/kg oral dosing. […] The unbound concentration in the incubates was obtained with 0.0108 nM (e.g., 4.9 pg/ml) by correcting the binding fraction of 10-volume brain homogenate (0.047).

[2] = Prediction of therapeutic human plasma concentration from Kp,uu; details: C b,u,human set to 4.9 pg/ml, rat K p,uu, human unbound fraction
From the text: K p,uu in the current investigation is critical to link the PD of in vitro and in vivo results (see the result part). What is more important is that K p,uu is often preserved across species ([Di et al., 2013]). Human K p,uu can be estimated using that of rat ( Kp,uu,human≈Kp,uu,rat ). Thus, unbound drug concentration in human brain can be calculated by using the rat K p,uu, rat times the human unbound plasma concentration [ Cb,u,human≈Kp,uu,rat ×Cp,u,human ]. At the current stage, if C b,u,human (4.9 pg/ml) was set as the in vitro TPSO-binding activity concentration for the onset efficacy, therapeutic human plasma concentration would be around 27.2 ng/ml according to the calculation.

[3] = Aqueous solubility / BCS class; type: physicochemical
[4] = Pilot enzyme kinetic study in liver microsomes; type: in vitro ADME
From the text: Since identification of F a, F g and F h is of importance to mechanistic understanding the systemic exposure, the related efficacy, and the potent drug-drug interactions, a number of in vivo and in vitro models have been developed to elucidate F a, F g and F h. As for in vitro methods, liver microsomes, S9 or hepatocytes are all well accepted for the generation of hepatic clearance and F h via in vitro-in vivo extrapolation (IVIVE) ([Houston and Carlile, 1998]). Furthermore, functionally mature enterocytes mainly express CYPs and UGTs. Among UGT isoforms, UGT1A8 and UGT1A10 show gut-specific expression patterns ([Kaminsky and Zhang, 2003]; [Court et al., 2012]). However, the achievement of intestinal clearance and (F g) from intestinal microsomes is limited by a lack of consensus on the appropriate scaling factors and a low availability of high-quality tissue. In the present study, in vitro metabolic stability of YL-IPA08 was performed in liver microsomes and intestinal microsomes of rat and human in the presence of NADPH and UDPGA to identify the metabolizing enzyme, organ, and species difference. […] UGT is not involved in the depletion of YL-IPA08. Although the CYP-mediated elimination in HIM and RIM were also observed, with great difference of enzyme expression level between liver and gut, the contribution of intestinal metabolism to the oral bioavailability is hard to define. […]

## CCN(Cc1ccccn1)C(=O)Cc1c(-c2ccc(Cl)c(Cl)c2)nc2cc(C)ccn12 [YL-IPA08]
[1]
  blood plasma ratio at 1 h, 1 µM: 1.58 ± 0.06
TSPO
  unbound concentration in the incubates / in vitro TSPO-binding activity: 4.9 pg/mL
[2]
  predicted therapeutic human plasma concentration: ~27.2 ng/mL
[3]
  aqueous solubility (in words): high aqueous solubility
[3]; from high aqueous solubility and high permeability
  BCS class: BCS class I
[4]
  K m: 1 to 3 µM
